# Patent US20050282755A1, “Compositions having antimicrobial activity and uses thereof” (priority 2004, published 2005)
# Non-standard residues stand in square brackets, D forms with d. Residues, ends and D or L forms follow the SMILES beside them. *: point of attachment. Palmitoyl = CCCCCCCCCCCCCCCC(=O)*; Lauroyl = CCCCCCCCCCCC(=O)*; Hexanoyl = CCCCCC(=O)*
# How the values were obtained:
# Assay type in all cases: cell-based
# [1] = system: Staphylococcus aureus ATCC 29213; experiment: MIC, NCCLS M7-A6 broth microdilution, cation-adjusted Mueller Hinton broth (Table 9, no superscript); details: ATCC 29213
# Procedure, shortened: (§1)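 Log-phase bacteria were added to wells containing peptide in cation-adjusted Mueller Hinton broth at a final 5×10^5 to 1×10^6 CFU/milliliter. Plates then sat overnight at 37° C. Wells were scored visually for turbidity against a peptide-free control.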
# [2] = system: Candida albicans ATCC 18804; experiment: MIC in yeasts, NCCLS M27-A2 broth microdilution, RPMI 1640 (Table 9, letter e); details: ATCC 18804
# Experimental: Briefly, RPMI 1640 supplemented with glutamine and phenol red as a pH indicator was used in the broth microdilution method. A 96-well plate was inoculated so that the final inoculum of yeast for each well contained between 0.5×10^3 and 2.5×10^3 CFU/milliliter. […] Plates were incubated for 24 to 48 hours at 37° C. The lowest concentration of peptide that contained no visible growth was determined as the MIC. MIC values that utilized this method of MIC determination are indicated in Table 9 with a subscript letter “e.” “Peptide Number” corresponds to peptide compositions and corresponding designations in Table 3.
# [3] = system: Escherichia coli ATCC 25922; experiment: MIC, NCCLS M7-A6 broth microdilution (Table 9, no superscript); details: ATCC 25922
# Procedure, shortened: as §1
# [4] = system: Pseudomonas aeruginosa ATCC 27853; experiment: as above; details: ATCC 27853
# Procedure, shortened: as §1
# Salmonella dublin (Lane) = experiment: as above
# Procedure, shortened: as §1
# [5] = system: Staphylococcus epidermidis ATCC 12228; experiment: as above; details: ATCC 12228
# Procedure, shortened: as §1
SMILES,MIC S. aureus [1],MIC C. albicans [2],MIC E. coli [3],MIC P. aeruginosa [4],MIC S. dublin (Salmonella dublin (Lane)),MIC S. epidermidis [5]
"CCCCCCCCCCCC(=O)N[C@H](CCCNC(=N)N)C(=O)N[C@H](CO)C(=O)N[C@H](CCCNC(=N)N)C(=O)N[C@H](Cc1c[nH]c2ccccc12)C(=O)N[C@H](CCCNC(=N)N)C(=O)N[C@H](CC(=O)O)C(=O)N[C@@H](C(=O)N[C@H](C)C(=O)N[C@H](CCCNC(=N)N)C(=O)N[C@H](CC(N)=O)C(N)=O)C(C)C [Peptide 117, Lauryl-rsrwrdvarn-NH2] (Lauroyl-[dR][dS][dR][dW][dR][dD][dV][dA][dR][dN]-NH2)",32 µg/mL,16e ug/mL,>64 µg/mL,64 µg/mL,>64 µg/mL,16 µg/mL
"CCCCCCCCCCCC(=O)N[C@H](CO)C(=O)N[C@H](CCCNC(=N)N)C(=O)N[C@H](Cc1c[nH]c2ccccc12)C(=O)N[C@H](CCCNC(=N)N)C(=O)N[C@H](CC(=O)O)C(=O)N[C@@H](C(=O)N[C@H](C)C(N)=O)C(C)C [Peptide 121, Lauryl-srwrdva-NH2] (Lauroyl-[dS][dR][dW][dR][dD][dV][dA]-NH2)",>64 µg/mL,>64e ug/mL,>64 µg/mL,>64 µg/mL,>64 µg/mL,>64 µg/mL
"CCCCCCCCCCCC(=O)N[C@H](Cc1c[nH]c2ccccc12)C(=O)N[C@H](CCCNC(=N)N)C(=O)N[C@H](CC(=O)O)C(=O)N[C@@H](C(=O)N[C@H](C)C(=O)N[C@H](CCCNC(=N)N)C(=O)N[C@H](CC(N)=O)C(N)=O)C(C)C [Peptide 123, Lauryl-wrdvarn-NH2] (Lauroyl-[dW][dR][dD][dV][dA][dR][dN]-NH2)",>64 µg/mL,64e ug/mL,>64 µg/mL,>64 µg/mL,>64 µg/mL,64 µg/mL
"CCCCCCCCCCCC(=O)N[C@H](CCCNC(=N)N)C(=O)N[C@H](CC(=O)O)C(=O)N[C@@H](C(=O)N[C@H](C)C(=O)N[C@H](CCCNC(=N)N)C(=O)N[C@H](CC(N)=O)C(=O)N[C@H](Cc1ccccc1)C(N)=O)C(C)C [Peptide 124, Lauryl-rdvarnf-NH2] (Lauroyl-[dR][dD][dV][dA][dR][dN][dF]-NH2)",>64 µg/mL,64e ug/mL,>64 µg/mL,>64 µg/mL,>64 µg/mL,>64 µg/mL
"CCCCCCCCCCCC(=O)N[C@@H](C(=O)N[C@H](C)C(=O)N[C@H](CCCNC(=N)N)C(=O)N[C@H](CC(N)=O)C(=O)N[C@H](Cc1ccccc1)C(=O)N[C@H](CCSC)C(=O)N[C@H](CCCNC(=N)N)C(N)=O)C(C)C [Peptide 126, Lauryl-varnfmr-NH2] (Lauroyl-[dV][dA][dR][dN][dF][dM][dR]-NH2)",>64 µg/mL,8e ug/mL,>64 µg/mL,>64 µg/mL,>64 µg/mL,>64 µg/mL

# The remaining lines, values ahead:
MIC S. aureus [1],MIC C. albicans [2],MIC E. coli [3],MIC P. aeruginosa [4],MIC S. dublin (Salmonella dublin (Lane)),MIC S. epidermidis [5],SMILES
>32 µg/mL,>64e ug/mL,>64 µg/mL,>64 µg/mL,>64 µg/mL,64 µg/mL,"CCCCCCCCCCCC(=O)N[C@@H](CCCNC(=N)N)C(=O)N[C@@H](CO)C(=O)N[C@@H](CCCNC(=N)N)C(=O)N[C@@H](Cc1c[nH]c2ccccc12)C(=O)N[C@@H](CCCNC(=N)N)C(=O)N[C@@H](CC(=O)O)C(=O)N[C@H](C(N)=O)C(C)C [Peptide 103, Lauryl-RSRWRDV-NH2] (Lauroyl-RSRWRDV-NH2)"
>64 µg/mL,>64e ug/mL,–,–,>64 µg/mL,–,"CCCCCCCCCCCC(=O)N[C@@H](Cc1c[nH]c2ccccc12)C(=O)N[C@@H](CCCNC(=N)N)C(=O)N[C@@H](CC(=O)O)C(=O)N[C@H](C(=O)N[C@@H](C)C(=O)N[C@@H](CCCNC(=N)N)C(=O)N[C@@H](CC(N)=O)C(=O)N[C@@H](Cc1ccccc1)C(=O)N[C@@H](CCSC)C(=O)N[C@@H](CCCNC(=N)N)C(N)=O)C(C)C [Peptide 112, Lauryl-WRDVARNFMR-NH2] (Lauroyl-WRDVARNFMR-NH2)"
32 µg/mL,16e ug/mL,64 µg/mL,32 µg/mL,64 µg/mL,16 µg/mL,"CCCCCCCCCCCC(=O)N[C@H](CCCNC(=N)N)C(=O)N[C@H](CO)C(=O)N[C@H](CCCNC(=N)N)C(=O)N[C@H](Cc1c[nH]c2ccccc12)C(=O)N[C@H](CCCNC(=N)N)C(=O)N[C@H](CC(=O)O)C(=O)N[C@@H](C(=O)N[C@H](C)C(N)=O)C(C)C [Peptide 119, Lauryl-rsrwrdva-NH2] (Lauroyl-[dR][dS][dR][dW][dR][dD][dV][dA]-NH2)"
>64 µg/mL,>64e ug/mL,>64 µg/mL,>64 µg/mL,>64 µg/mL,32 µg/mL,"CCCCCCCCCCCC(=O)N[C@H](Cc1c[nH]c2ccccc12)C(=O)N[C@H](CCCNC(=N)N)C(=O)N[C@H](CC(=O)O)C(=O)N[C@@H](C(=O)N[C@H](C)C(=O)N[C@H](CCCNC(=N)N)C(=O)N[C@H](CC(N)=O)C(=O)N[C@H](Cc1ccccc1)C(=O)N[C@H](CCSC)C(=O)N[C@H](CCCNC(=N)N)C(N)=O)C(C)C [Peptide 129, Lauryl-wrdvarnfmr-NH2] (Lauroyl-[dW][dR][dD][dV][dA][dR][dN][dF][dM][dR]-NH2)"
32 µg/mL,–,64 µg/mL,>64 µg/mL,>64 µg/mL,64 µg/mL,"CCCCCCCCCCCC(=O)N[C@H](CCCNC(=N)N)C(=O)N[C@H](Cc1c[nH]c2ccccc12)C(=O)N[C@H](CCCNC(=N)N)C(=O)N[C@H](CC(=O)O)C(=O)N[C@H](CC(C)C)C(=O)N[C@H](C)C(=O)N[C@H](CCCNC(=N)N)C(N)=O [Peptide 244, Lauryl-rwrdlar-NH2] (Lauroyl-[dR][dW][dR][dD][dL][dA][dR]-NH2)"
–,64e ug/mL,–,–,–,–,"CCCCCC(=O)N[C@H](CCCNC(=N)N)C(=O)N[C@H](CO)C(=O)N[C@H](CCCNC(=N)N)C(=O)N[C@H](Cc1c[nH]c2ccccc12)C(=O)N[C@H](CCCNC(=N)N)C(=O)N[C@H](CC(=O)O)C(=O)N[C@@H](C(=O)N[C@H](C)C(=O)N[C@H](CCCNC(=N)N)C(=O)N[C@H](CC(N)=O)C(=O)N[C@H](Cc1ccccc1)C(=O)N[C@H](CC(C)C)C(=O)N[C@H](CCCNC(=N)N)C(N)=O)C(C)C [Peptide 251, Hexyl-rsrwrdvarnflr-NH2] (Hexanoyl-[dR][dS][dR][dW][dR][dD][dV][dA][dR][dN][dF][dL][dR]-NH2)"
32 µg/mL,–,>64 µg/mL,64 µg/mL,>64 µg/mL,4 µg/mL,"CCCCCCCCCCCCCCCC(=O)N[C@H](CCCNC(=N)N)C(=O)N[C@H](CO)C(=O)N[C@H](CCCNC(=N)N)C(=O)N[C@H](Cc1c[nH]c2ccccc12)C(=O)N[C@H](CCCNC(=N)N)C(=O)N[C@H](CC(=O)O)C(=O)N[C@@H](C(=O)N[C@H](C)C(=O)N[C@H](CCCNC(=N)N)C(=O)N[C@H](CC(N)=O)C(=O)N[C@H](Cc1ccccc1)C(=O)N[C@H](CC(C)C)C(=O)N[C@H](CCCNC(=N)N)C(N)=O)C(C)C [Peptide 254, Palmityl-rsrwrdvarnflr-NH2] (Palmitoyl-[dR][dS][dR][dW][dR][dD][dV][dA][dR][dN][dF][dL][dR]-NH2)"
